Laboratory results from patent publication US8603493B2, “Carbosilane dendrimers, preparation method thereof and use of same” (Dendrico, S.L., priority 2005, dated 2013).

Assays:
erythrocytes = test: Haemolysis test (haemoglobin release after 1 hour); format: cell-based; details: positive control, 0.2% Triton X-100
Procedure: A visual examination was carried out to detect the presence/absence of hemagglutination and quantification of haemoglobin release (haemolysis test) by spectrophotometry. ClNH4 was excluded from the dendrimers of previous Example 38, as the result had been more toxic for lymphocytes, and the results were compared with those produced for a PAMAN type generation 4 dendrimer.
The erythrocytes were obtained after being separated from the PBMC using the same Ficoll gradient cited in the previous Example. They were diluted in PBS to be able to view them individually. The cells were resuspended in 500 μl of PBS and were seeded in a 24-well plate (300,000/well). As positive control, cells treated with 0.2% Triton X-100 were used. Negative control: PBS (blank). The erythrocytes were incubated with different dendrimer concentrations. The presence of hemagglutination, number of cells and release of haemoglobin by hour were evaluated by collecting 100 μl of supernatant and measuring absorbencies by spectrophotometry using a plate reader at a wavelength of 550 nm and 690 nm as reference.
100% haemolysis in the control of Triton X-100 (the cells treated with Triton were all dead and broken). […] Each well is expressed as the percentage with respect to the O.D. (optical density) of Triton X-100, which is considered 100%; in addition to that percentage 7% of the control is subtracted. […]

ODN = test: Complex formation between CBS and ODN (agarose gel electrophoresis); format: binding; details: 3% agarose gel, RPMI, excess positive charge (+/−) 2/1 and higher
Text: The oligonucleotidic sequences used were antisense sequences (complementary) directed against HIV RNA. The length varied from 15 to 28 bases, being of phosphorothioate nature. The specific ODN used and their sequences are shown below in Table 1.
Several of the ODN were used fluorescent at the 5′ end. This is indicated by adding the letter F to its notation. Thus, “GF” makes reference to the fluorescent anti-gag ODN at end 5′, whilst “RF” makes reference to the anti-Rev ODN fluorescent at end 5′.
Different agarose concentrations were used to show the migration of the ODN and the dendriplexes, bearing in mind the small size of the ODN used. Finally, a 3% agarose concentration in TAE 1× was chosen as the best. The migration of non-fluorescent ODNs was compared with fluorescent ones, both migrating at the same height but the latter increasing the signal perceived considerably. Using them, it thus avoided the isotopic labelling of the ODN. A double well was manufactured to prepare these gels, to permit load volumes of 60 μl, of which 50 μl was mixture volume of the samples in RPMI and 10 μl load buffer with glycerol. As size marker, a ladder of 100 base pairs was used (Gibco BRL®).
For the complex formations in all the tests performed, both on gels and on cells the ratio between the number of positive and negative charges in said complex was taken. As published by different authors in studies with PAMAM dendrimers, it is necessary that the complex formed has an excess positive charge to facilitate its binding to the cell membrane glycoproteins, negatively charged, thus starting the endocytosis process. Likewise, an excess of positive charge is added to ensure the formation of the dendrimer-DNA complex. Therefore, the complexes between the CBS dendrimers and the different nucleic acids were formed in excess number of positive charges (provided by the CBS) compared with negative charges (provided by the ODN). Nevertheless, different charge ratios were tested, making the calculations based in the number of dendrimer charges (fixed) and the number of negative charges of the ODN (also fixed). The 2/1 ratio of positive/negative charges was fixed as sufficient in all dendrimers to form the complexes with a total positive charge, although in some experiments a balance was provided of an equal number of negative charges as positive charges or excess negative charges.
In all the tests, a complex formation volume of 60 μl was used, using phenol red without RPMI serum as support medium.
Tests of complex formation were used with the dendrimers of the invention IM8, ClNH4, NN, Phe and IM16.
The synthesis process of the CBS used in this work begins from an initial nucleus of common structure, which is ended functionalizing in the periphery by the use of different functional groups, which are those which provide the positive charge to the dendrimer and determine the differences between themselves, the dendrimeric nucleus being of apolar nature. Since some of the bonds of the functional groups used to the dendrimeric nucleus could be unstable in aqueous solution, tests were performed to determine if the DNA retention in agarose gels and, therefore, the complex formation between the CBS and the DNA could be due to the total dendrimer structure being conserved or in contrast, the terminal functional groups came away from the moiety of the dendrimeric core which are responsible for the DNA retention. For this, gels were used in which complexes were formed between the ODNs and the integral CBS and those formed supposedly between the ODNs and the terminal functional groups with which the carbosilane skeleton had functionalized, in this case quaternized dimethylethanolamine. As has previously been commented, those positively charged molecules, which are bound to the dendrimer as terminal functional groups, are those which give the dendrimer its charge. As control, the mixtures of ODN-dendrimers, ODN-monomers and ODN alone were compared. […]

PBMC [1] = test: Staining with Trypan Blue of PBMC treated with dendriplexes or dendrimers; details: 72 hours, (+/−)=2/1, IM8 3.93 μM, IM16 1.99 μM, ClNH4 3.98 μM, Phe 1.96 μM, NN 3.94 μM, SF 0.68 μM, G4 100 μM, PPT 0.88 μM (0.34 μM with SF, 1 μM with G4), n = 100 cells per count
PBMC [2] = test: Flow cytometry test (size and complexity; live cells vs apoptosis-necrosis); format: cell-based, human; details: 72 hours, same concentrations as Trypan Blue test
Procedure: The evaluation time on this occasion was 72 hours. The toxicity was evaluated on PBMC, produced in the manner described in Example 38. […] The ODN used was PPT, in the following way: • [ODN PPT] in the complex with the CBS: 2.57 (0.88 μM) • [ODN PPT] in the complex with SF: 0.34 μM • [ODN PPT] in the complex with G4: 1 μM […] The cells were either incubated with said complexes, a mixture of equal volume which contained ODN without CBS, a mixture which contained dendrimer alone, or with a mixture which contained only RPMI+complete medium which was used as negative control. The cells and/or the supernatant were then collected to be analysed by flow cytometry, confocal microscopy or cell DNA extraction. The percentages of cells with size and complexity corresponding to cells in apoptosis-necrosis were compared with the live cells. For this, the size (FW) and the complexity (SD) was evaluated by flow cytometry. To do this, a region was drawn around the cells with FW and SD corresponding to cells in apoptosis-necrosis and another around the cells with FW and SD corresponding to live cells. The percentages of cells present in each slide were compared. The graphics produced are shown in FIG. 15, wherein the X-axis represents the size (FW) and the Y-axis the complexity (SD). […] The cloud of dark cells corresponds to cells in apoptosis necrosis. The live cells are represented in grey.

PBMC [3] = test: Lymphoproliferative test (tritiated thymidine); format: cell-based, human; details: positive control, 1 μg/mL, 5 days, tested 12 times
Procedure: To evaluate the antigenic capacity of CBS dendrimers, a lymphoproliferative test was performed. The experiment was prepared in triplicate in a 96-well flat bottomed plate (100,000 cells per well in 200 μl of complete human AB medium with antibiotics, glutamine and 10% AB serum). […] After 5 days of incubation at 37° C. with 5% atmosphere of CO2 100 μl of supernatant was removed, then adding 100 μL of a medium with an isotopic intercalating agent of DNA, tritiated thymidine (prepared with 10% AB medium and Thymidine 1/100). The plate was then filtered using a Harvester passing its content through a filter, which was left to dry overnight (approx. 16 hours). After this period, a sheet of Methylex® containing scintillation medium was heat-melted, and it was read in a gamma camera to evaluate the number of counts (greater the counts, more proliferation). The results, which are shown below in Table 8, are expressed as tritiated thymidine counts per minute (cpm). Each result of each concentration was performed in triplicate, the value which appears in the table being the average of the 3. The PHA and the control were tested 12 times.

Substance: Triton X-100
- haemolysis (erythrocytes): 100%

Substance: quaternized dimethylethanolamine [monomers, reference compound]
- complex formation with ODN (retention of DNA migration in gel) (ODN): not being capable

Substance: PPT: antisense phosphorothioate ODN against HIV mRNA, AATTTTCTTTTCGCCCCT (SEQ ID NO: 3), 18 bases [reference compound]
- TB+ (%), cells stained with Trypan Blue (PBMC [1]): 11.9%
- Apoptosis-necrosis (%) (PBMC [2]): 23%
- Live cells (%) (PBMC [2]): 71%

Substance: phytohemagglutinin [PHA, reference compound]
- Measurement of the scintillation counter (tritiated thymidine counts) (PBMC [3]): 10267 cpm
